Reference: ChEMBL document CHEMBL6134890, “Terminally Symmetric β-Turn Peptides for Multidrug-Resistant Bacterial Infections” (J Med Chem, 2025)
In brackets after ≈: the same amount, converted by molar mass. Peptide text beside a SMILES is read from it.

Legend:
[1] = test system: Staphylococcus aureus; experiment: Antimicrobial activity against Staphylococcus aureus ATCC 25923 assessed as reduction in bacterial growth by broth dilution method; assay type: functional
[2] = test system: Escherichia coli; experiment: Antimicrobial activity against Escherichia coli ATCC 25922 assessed as reduction in bacterial growth by broth dilution method; assay type: functional
[3] = Hemolytic activity in human Red blood cell assessed as hemolysis incubated for 1 hrs by microplate reader based analysis; assay type: toxicity; settings: erythrocyte
[4] = test system: Escherichia coli; experiment: Antimicrobial activity against multi-drug resistant Escherichia coli assessed as reduction in bacterial growth by broth dilution method; assay type: functional
[5] = test system: Staphylococcus aureus; experiment: Antimicrobial activity against multi-drug resistant Staphylococcus aureus assessed as reduction in bacterial growth by broth dilution method; assay type: functional
[6] = test system: Klebsiella pneumoniae; experiment: Antimicrobial activity against multi-drug resistant Klebsiella pneumoniae assessed as reduction in bacterial growth by broth dilution method; assay type: functional
[7] = test system: Enterococcus faecalis; experiment: Antimicrobial activity against multi-drug resistant Enterococcus faecalis assessed as reduction in bacterial growth by broth dilution method; assay type: functional
[8] = test system: Staphylococcus epidermidis; experiment: Antimicrobial activity against multi-drug resistant Staphylococcus epidermidis assessed as reduction in bacterial growth by broth dilution method; assay type: functional
[9] = test system: Acinetobacter baumannii; experiment: Antimicrobial activity against multi-drug resistant Acinetobacter baumannii assessed as reduction in bacterial growth by broth dilution method; assay type: functional

SMILES	MIC [1] [µM]	MIC [2] [µM]	HC10 [3] [µM]	MIC [4] [µM]	MIC [5] [µM]	MIC [6] [µM]	MIC [7] [µM]	MIC [8] [µM]	MIC [9] [µM]
CC[C@H](C)[C@H](NC(=O)[C@H](CCCCN)NC(=O)[C@@H](NC(=O)[C@H](CCCCN)NC(=O)[C@@H](NC(=O)[C@@H]1CCCN1C(=O)[C@H](Cc1c[nH]c2ccccc12)NC(=O)[C@H](Cc1c[nH]c2ccccc12)NC(=O)[C@H](Cc1c[nH]c2ccccc12)NC(=O)[C@@H]1CCCN1C(=O)[C@@H](NC(=O)[C@H](CCCCN)NC(=O)[C@@H](NC(=O)[C@H](CCCCN)NC(=O)[C@@H](NC(=O)[C@@H](N)CCCCN)[C@@H](C)CC)[C@@H](C)CC)[C@@H](C)CC)[C@@H](C)CC)[C@@H](C)CC)C(=O)N[C@@H](CCCCN)C(N)=O (H-KIKIKIPWWWPIKIKIK-NH2)	4 (≈ 8.87 µg/mL)	16 (≈ 35.5 µg/mL)	33.38	16 (≈ 35.5 µg/mL)	8 (≈ 17.7 µg/mL)	16 (≈ 35.5 µg/mL)	8 (≈ 17.7 µg/mL)	8 (≈ 17.7 µg/mL)	64 (≈ 142 µg/mL)
CC[C@H](C)[C@H](N)C(=O)N[C@@H](CCCCN)C(=O)N[C@H](C(=O)N[C@@H](CCCCN)C(=O)N[C@H](C(=O)N[C@@H](CCCCN)C(=O)N1CCC[C@H]1C(=O)N[C@@H](Cc1c[nH]c2ccccc12)C(=O)N[C@@H](Cc1c[nH]c2ccccc12)C(=O)N[C@@H](Cc1c[nH]c2ccccc12)C(=O)N1CCC[C@H]1C(=O)N[C@@H](CCCCN)C(=O)N[C@H](C(=O)N[C@@H](CCCCN)C(=O)N[C@H](C(=O)N[C@@H](CCCCN)C(=O)N[C@H](C(N)=O)[C@@H](C)CC)[C@@H](C)CC)[C@@H](C)CC)[C@@H](C)CC)[C@@H](C)CC (H-IKIKIKPWWWPKIKIKI-NH2)	4 (≈ 8.87 µg/mL)	64 (≈ 142 µg/mL)	116.64	64 (≈ 142 µg/mL)	8 (≈ 17.7 µg/mL)	64 (≈ 142 µg/mL)	2 (≈ 4.44 µg/mL)	2 (≈ 4.44 µg/mL)	64 (≈ 142 µg/mL)
NCCCC[C@H](NC(=O)[C@H](Cc1c[nH]c2ccccc12)NC(=O)[C@H](CCCCN)NC(=O)[C@H](Cc1c[nH]c2ccccc12)NC(=O)[C@H](CCCCN)NC(=O)[C@@H]1CCCN1C(=O)[C@H](Cc1c[nH]c2ccccc12)NC(=O)[C@H](Cc1c[nH]c2ccccc12)NC(=O)[C@H](Cc1c[nH]c2ccccc12)NC(=O)[C@@H]1CCCN1C(=O)[C@H](CCCCN)NC(=O)[C@H](Cc1c[nH]c2ccccc12)NC(=O)[C@H](CCCCN)NC(=O)[C@H](Cc1c[nH]c2ccccc12)NC(=O)[C@@H](N)CCCCN)C(N)=O (H-KWKWKPWWWPKWKWK-NH2)	4 (≈ 9.14 µg/mL)	4 (≈ 9.14 µg/mL)	64.03	4 (≈ 9.14 µg/mL)	4 (≈ 9.14 µg/mL)	4 (≈ 9.14 µg/mL)	4 (≈ 9.14 µg/mL)	4 (≈ 9.14 µg/mL)	4 (≈ 9.14 µg/mL)
CC[C@H](C)[C@H](N)C(=O)N[C@@H](CCCCN)C(=O)N[C@H](C(=O)N[C@@H](CCCCN)C(=O)N[C@H](C(=O)N[C@@H](CCCCN)C(=O)N[C@@H](Cc1ccccc1)C(=O)N1CCC[C@H]1C(=O)N[C@@H](Cc1c[nH]c2ccccc12)C(=O)N[C@@H](Cc1c[nH]c2ccccc12)C(=O)N[C@@H](Cc1c[nH]c2ccccc12)C(=O)N1CCC[C@H]1C(=O)N[C@@H](Cc1ccccc1)C(=O)N[C@@H](CCCCN)C(=O)N[C@H](C(=O)N[C@@H](CCCCN)C(=O)N[C@H](C(=O)N[C@@H](CCCCN)C(=O)N[C@H](C(N)=O)[C@@H](C)CC)[C@@H](C)CC)[C@@H](C)CC)[C@@H](C)CC)[C@@H](C)CC (H-IKIKIKFPWWWPFKIKIKI-NH2)	128 (≈ 322 µg/mL)	128 (≈ 322 µg/mL)	6.56	128 (≈ 322 µg/mL)	64 (≈ 161 µg/mL)	64 (≈ 161 µg/mL)	128 (≈ 322 µg/mL)	128 (≈ 322 µg/mL)	128 (≈ 322 µg/mL)
CC[C@H](C)[C@H](NC(=O)[C@H](CCCCN)NC(=O)[C@@H](NC(=O)[C@H](Cc1ccccc1)NC(=O)[C@@H]1CCCN1C(=O)[C@H](Cc1c[nH]c2ccccc12)NC(=O)[C@H](Cc1c[nH]c2ccccc12)NC(=O)[C@H](Cc1c[nH]c2ccccc12)NC(=O)[C@@H]1CCCN1C(=O)[C@H](Cc1ccccc1)NC(=O)[C@@H](NC(=O)[C@H](CCCCN)NC(=O)[C@@H](NC(=O)[C@@H](N)CCCCN)[C@@H](C)CC)[C@@H](C)CC)[C@@H](C)CC)C(=O)N[C@@H](CCCCN)C(N)=O (H-KIKIFPWWWPFIKIK-NH2)	8 (≈ 16.2 µg/mL)	8 (≈ 16.2 µg/mL)	4.32	16 (≈ 32.5 µg/mL)	8 (≈ 16.2 µg/mL)	256 (≈ 520 µg/mL)	16 (≈ 32.5 µg/mL)	8 (≈ 16.2 µg/mL)	8 (≈ 16.2 µg/mL)
CC(C)[C@H](NC(=O)[C@H](CCCCN)NC(=O)[C@@H](NC(=O)[C@H](CCCCN)NC(=O)[C@@H]1CCCN1C(=O)[C@H](Cc1c[nH]c2ccccc12)NC(=O)[C@H](Cc1c[nH]c2ccccc12)NC(=O)[C@H](Cc1c[nH]c2ccccc12)NC(=O)[C@@H]1CCCN1C(=O)[C@H](CCCCN)NC(=O)[C@@H](NC(=O)[C@H](CCCCN)NC(=O)[C@@H](NC(=O)[C@@H](N)CCCCN)C(C)C)C(C)C)C(C)C)C(=O)N[C@@H](CCCCN)C(N)=O (H-KVKVKPWWWPKVKVK-NH2)	64 (≈ 124 µg/mL)	32 (≈ 61.9 µg/mL)	> 256	32 (≈ 61.9 µg/mL)	64 (≈ 124 µg/mL)	32 (≈ 61.9 µg/mL)	32 (≈ 61.9 µg/mL)	32 (≈ 61.9 µg/mL)	64 (≈ 124 µg/mL)
CC[C@H](C)[C@H](NC(=O)[C@H](CCCCN)NC(=O)[C@@H](NC(=O)[C@H](CCCCN)NC(=O)[C@@H](NC(=O)[C@H](Cc1ccccc1)NC(=O)[C@@H]1CCCN1C(=O)[C@H](Cc1c[nH]c2ccccc12)NC(=O)[C@H](Cc1c[nH]c2ccccc12)NC(=O)[C@H](Cc1c[nH]c2ccccc12)NC(=O)[C@@H]1CCCN1C(=O)[C@H](Cc1ccccc1)NC(=O)[C@@H](NC(=O)[C@H](CCCCN)NC(=O)[C@@H](NC(=O)[C@H](CCCCN)NC(=O)[C@@H](NC(=O)[C@@H](N)CCCCN)[C@@H](C)CC)[C@@H](C)CC)[C@@H](C)CC)[C@@H](C)CC)[C@@H](C)CC)C(=O)N[C@@H](CCCCN)C(N)=O (H-KIKIKIFPWWWPFIKIKIK-NH2)	128 (≈ 322 µg/mL)	128 (≈ 322 µg/mL)	7.28	128 (≈ 322 µg/mL)	128 (≈ 322 µg/mL)	64 (≈ 161 µg/mL)	64 (≈ 161 µg/mL)	128 (≈ 322 µg/mL)	128 (≈ 322 µg/mL)
NCCCC[C@H](NC(=O)[C@H](Cc1ccccc1)NC(=O)[C@H](CCCCN)NC(=O)[C@H](Cc1ccccc1)NC(=O)[C@H](CCCCN)NC(=O)[C@H](Cc1ccccc1)NC(=O)[C@@H]1CCCN1C(=O)[C@H](Cc1c[nH]c2ccccc12)NC(=O)[C@H](Cc1c[nH]c2ccccc12)NC(=O)[C@H](Cc1c[nH]c2ccccc12)NC(=O)[C@@H]1CCCN1C(=O)[C@H](Cc1ccccc1)NC(=O)[C@H](CCCCN)NC(=O)[C@H](Cc1ccccc1)NC(=O)[C@H](CCCCN)NC(=O)[C@H](Cc1ccccc1)NC(=O)[C@@H](N)CCCCN)C(N)=O (H-KFKFKFPWWWPFKFKFK-NH2)	8 (≈ 19.4 µg/mL)	8 (≈ 19.4 µg/mL)	6.39	8 (≈ 19.4 µg/mL)	8 (≈ 19.4 µg/mL)	16 (≈ 38.8 µg/mL)	4 (≈ 9.69 µg/mL)	4 (≈ 9.69 µg/mL)	4 (≈ 9.69 µg/mL)
NCCCC[C@H](NC(=O)[C@H](Cc1c[nH]c2ccccc12)NC(=O)[C@H](CCCCN)NC(=O)[C@H](Cc1c[nH]c2ccccc12)NC(=O)[C@@H]1CCCN1C(=O)[C@H](Cc1c[nH]c2ccccc12)NC(=O)[C@H](Cc1c[nH]c2ccccc12)NC(=O)[C@H](Cc1c[nH]c2ccccc12)NC(=O)[C@@H]1CCCN1C(=O)[C@H](Cc1c[nH]c2ccccc12)NC(=O)[C@H](CCCCN)NC(=O)[C@H](Cc1c[nH]c2ccccc12)NC(=O)[C@@H](N)CCCCN)C(N)=O (H-KWKWPWWWPWKWK-NH2)	2 (≈ 4.05 µg/mL)	8 (≈ 16.2 µg/mL)	10.37	4 (≈ 8.11 µg/mL)	2 (≈ 4.05 µg/mL)	16 (≈ 32.4 µg/mL)	2 (≈ 4.05 µg/mL)	2 (≈ 4.05 µg/mL)	4 (≈ 8.11 µg/mL)
CC[C@H](C)[C@H](N)C(=O)N[C@@H](CCCCN)C(=O)N[C@H](C(=O)N[C@@H](CCCCN)C(=O)N1CCC[C@H]1C(=O)N[C@@H](Cc1c[nH]c2ccccc12)C(=O)N[C@@H](Cc1c[nH]c2ccccc12)C(=O)N[C@@H](Cc1c[nH]c2ccccc12)C(=O)N1CCC[C@H]1C(=O)N[C@@H](CCCCN)C(=O)N[C@H](C(=O)N[C@@H](CCCCN)C(=O)N[C@H](C(N)=O)[C@@H](C)CC)[C@@H](C)CC)[C@@H](C)CC (H-IKIKPWWWPKIKI-NH2)	8 (≈ 13.9 µg/mL)	16 (≈ 27.8 µg/mL)	> 256	16 (≈ 27.8 µg/mL)	8 (≈ 13.9 µg/mL)	64 (≈ 111 µg/mL)	16 (≈ 27.8 µg/mL)	16 (≈ 27.8 µg/mL)	16 (≈ 27.8 µg/mL)
